Data reported in the supplement of paper PMC10307832.

Experiments:
Test in all cases: relative viability (nuclei count vs DMSO), 5 days (fraction); higher = more cells survive
[1] = compound: CCN(CCO)CCCC(C)Nc1ccnc2cc(Cl)ccc12 [Hydroxychloroquine] + O=C(CCCCCCC(=O)Nc1ccccc1)NO [Vorinostat] (partner 1 µM)
Method in brief: (§1)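 For relative viability, nuclei counts in treated wells were divided by those in vehicle wells. Lung cancer cell lines had been pin-tool dosed in 1536-well plates the day after seeding and cultured for 5 days, then fixed and stained in one step (final 0.05% Triton X-100, 1% formaldehyde, 1 ug/ml Hoechst) and imaged at 4×. Doses were one drug alone or a fixed anchor-drug dose plus five library-drug doses (not always all listed) in √10 steps, and values are duplicate-plate medians.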

[2] = compound: CCN(CCO)CCCC(C)Nc1ccnc2cc(Cl)ccc12 [Hydroxychloroquine] + Cc1nc(Nc2ncc(C(=O)Nc3c(C)cccc3Cl)s2)cc(N2CCN(CCO)CC2)n1 [Dasatinib] (partner 0.075 µM)
Method in brief: as §1

[3] = compound: CCN(CCO)CCCC(C)Nc1ccnc2cc(Cl)ccc12 [Hydroxychloroquine] + CS(=O)(=O)N1CCN(Cc2cc3nc(-c4cccc5[nH]ncc45)nc(N4CCOCC4)c3s2)CC1 [Pictilisib] (partner 1 µM)
Method in brief: as §1

[4] = compound: CCN(CCO)CCCC(C)Nc1ccnc2cc(Cl)ccc12 [Hydroxychloroquine] + C[C@@H](Oc1cc(-c2cnn(C3CCNCC3)c2)cnc1N)c1c(Cl)ccc(F)c1Cl [Crizotinib] (partner 1 µM)
Method in brief: as §1

Cell Line	relative viability ([1]; first compound 0.5 µM)	relative viability ([1]; first compound 1.581 µM)	relative viability ([1]; first compound 5 µM)	relative viability ([1]; first compound 15.81 µM)	relative viability ([1]; first compound 50 µM)	relative viability ([2]; first compound 0.5 µM)	relative viability ([2]; first compound 1.581 µM)	relative viability ([2]; first compound 5 µM)	relative viability ([2]; first compound 15.81 µM)	relative viability ([2]; first compound 50 µM)	relative viability ([3]; first compound 0.5 µM)	relative viability ([3]; first compound 1.581 µM)	relative viability ([3]; first compound 5 µM)	relative viability ([3]; first compound 15.81 µM)	relative viability ([3]; first compound 50 µM)	relative viability ([4]; first compound 0.5 µM)	relative viability ([4]; first compound 1.581 µM)	relative viability ([4]; first compound 5 µM)	relative viability ([4]; first compound 15.81 µM)	relative viability ([4]; first compound 50 µM)
NCI-H1734	0.856	0.697	0.787	0.866	0.826	0.399	0.374	0.506	0.452	0.504	0.507	0.294	0.462	0.491	0.47	0.652	0.559	0.741	0.582	0.716
NCI-H1755	0.79	0.656	0.778	0.734	0.737	0.498	0.381	0.422	0.392	0.394	0.431	0.273	0.374	0.425	0.379	0.983	0.768	0.86	0.866	0.879
NCI-H1915	0.521	0.456	0.48	0.549	0.5	0.337	0.281	0.305	0.331	0.305	0.973	0.869	0.947	0.895	0.978	0.953	0.935	0.937	0.982	1.01
NCI-H1944	0.553	0.487	0.46	0.478	0.56	0.206	0.184	0.23	0.202	0.194	0.309	0.293	0.326	0.325	0.382	1.07	1.06	1.07	1.04	1.19
NCI-H1975	0.682	0.704	0.8	0.742	0.717	0.404	0.376	0.322	0.502	0.412	0.292	0.26	0.305	0.263	0.328	1.05	1.08	0.926	1.06	1.15
NCI-H1993	0.828	0.837	0.599	0.656	0.727	0.597	0.699	0.87	0.547	0.566	0.824	0.961	0.625	0.81	0.789	0.867	0.948	0.803	0.888	0.949
NCI-H2009	0.764	0.718	0.75	0.747	0.729	0.326	0.253	0.312	0.298	0.329	0.844	0.776	0.901	0.803	0.989	1.02	1	1.06	1.05	1.08
NCI-H2023	0.788	0.574	0.687	0.706	0.85	0.624	0.478	0.563	0.542	0.617	0.332	0.23	0.23	0.224	0.249	0.652	0.565	0.619	0.614	0.737
NCI-H2085	0.853	0.63	0.822	0.847	0.873	0.274	0.267	0.223	0.274	0.232	0.434	0.509	0.462	0.392	0.472	0.904	0.783	0.826	0.753	0.847
NCI-H2087	0.719	0.74	0.778	0.798	0.609	0.96	0.77	0.794	0.954	0.969	0.891	0.879	0.798	0.919	0.721	1.02	0.982	1.09	0.864	1.11
NCI-H2126	0.834	0.728	0.749	0.733	0.897	0.724	0.564	0.596	0.622	0.615	0.525	0.433	0.485	0.467	0.542	1.12	1.06	1.11	0.984	1.13
NCI-H2170	0.784	0.839	0.829	0.878	0.95	0.645	0.601	0.558	0.62	0.673	0.327	0.294	0.282	0.284	0.333	1.24	1.24	1.35	1.27	1.57
NCI-H2228	0.5	0.594	0.457	0.515	0.839	0.53	0.456	0.516	0.524	0.506	0.403	0.375	0.339	0.412	0.398	0.461	0.46	0.46	0.491	0.427
NCI-H2347	0.663	0.456	0.604	0.639	0.58	0.281	0.149	0.325	0.281	0.274	0.511	0.534	0.573	0.6	0.637	0.887	0.588	0.544	0.728	0.85
NCI-H2405	1.05	0.963	0.937	1.03	0.999	0.225	0.164	0.225	0.203	0.204	0.471	0.346	0.416	0.466	0.541	0.856	0.813	0.867	0.88	0.864
NCI-H3122	1.04	1.13	1.03	1.06	1.19	0.879	0.858	0.894	0.92	0.867	0.658	0.574	0.619	0.58	0.576	0.283	0.275	0.275	0.252	0.279
